Reference: paper PMC3795843 (Journal of molecular biology, 2013)

Key:
Dbp5p = target: T1, Dbp5p (Saccharomyces cerevisiae, UniProt P20449); test: inhibition of RNA duplex unwinding, native PAGE; type: biochemical; settings: 0.5 mM nucleotide, 0.5 mM ATP, 40 mM Hepes pH 7.5, 30 °C
T1 sequence (P20449 1-482): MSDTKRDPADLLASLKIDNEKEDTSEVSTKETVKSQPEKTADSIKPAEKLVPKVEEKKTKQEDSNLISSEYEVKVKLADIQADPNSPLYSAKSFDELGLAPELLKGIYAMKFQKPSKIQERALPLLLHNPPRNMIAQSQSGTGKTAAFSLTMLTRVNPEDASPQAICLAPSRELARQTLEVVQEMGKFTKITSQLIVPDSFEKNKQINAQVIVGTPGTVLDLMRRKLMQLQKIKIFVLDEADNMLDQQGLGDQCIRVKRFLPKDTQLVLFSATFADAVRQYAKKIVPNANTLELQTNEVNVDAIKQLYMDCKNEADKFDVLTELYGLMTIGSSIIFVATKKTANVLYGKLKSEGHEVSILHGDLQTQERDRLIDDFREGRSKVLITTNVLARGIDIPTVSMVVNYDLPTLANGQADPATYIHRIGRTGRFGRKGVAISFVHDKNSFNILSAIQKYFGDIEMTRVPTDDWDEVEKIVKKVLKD

Sub2p = target: T2, Sub2p (Saccharomyces cerevisiae, UniProt Q07478); test: inhibition of RNA duplex unwinding, native PAGE; type: biochemical; settings: 0.5 mM nucleotide, 0.5 mM ATP, 10 mM Tris pH 7.0, 50 mM KCl, 30 °C
T2 sequence (Q07478 2-446): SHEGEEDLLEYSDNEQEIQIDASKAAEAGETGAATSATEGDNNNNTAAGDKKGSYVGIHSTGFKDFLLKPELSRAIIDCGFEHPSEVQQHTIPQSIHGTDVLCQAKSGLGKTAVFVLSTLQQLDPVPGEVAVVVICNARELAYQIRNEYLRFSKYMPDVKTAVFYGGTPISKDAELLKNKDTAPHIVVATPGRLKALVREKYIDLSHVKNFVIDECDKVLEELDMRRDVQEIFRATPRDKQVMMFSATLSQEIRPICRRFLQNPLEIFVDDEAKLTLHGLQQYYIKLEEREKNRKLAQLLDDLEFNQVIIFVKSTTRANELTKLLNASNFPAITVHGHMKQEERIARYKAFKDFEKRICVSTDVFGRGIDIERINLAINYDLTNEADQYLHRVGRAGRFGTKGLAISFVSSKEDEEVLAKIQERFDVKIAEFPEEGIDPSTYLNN

Ded1p = Ded1p (Saccharomyces cerevisiae, UniProt P06634); test: fluorescence competition with mantADP; type: binding; settings: no RNA; pH 8.0, 50 mM NaCl, 0.5 mM excess Mg2+, 19 °C
Ded1p, sequence (P06634 2-604): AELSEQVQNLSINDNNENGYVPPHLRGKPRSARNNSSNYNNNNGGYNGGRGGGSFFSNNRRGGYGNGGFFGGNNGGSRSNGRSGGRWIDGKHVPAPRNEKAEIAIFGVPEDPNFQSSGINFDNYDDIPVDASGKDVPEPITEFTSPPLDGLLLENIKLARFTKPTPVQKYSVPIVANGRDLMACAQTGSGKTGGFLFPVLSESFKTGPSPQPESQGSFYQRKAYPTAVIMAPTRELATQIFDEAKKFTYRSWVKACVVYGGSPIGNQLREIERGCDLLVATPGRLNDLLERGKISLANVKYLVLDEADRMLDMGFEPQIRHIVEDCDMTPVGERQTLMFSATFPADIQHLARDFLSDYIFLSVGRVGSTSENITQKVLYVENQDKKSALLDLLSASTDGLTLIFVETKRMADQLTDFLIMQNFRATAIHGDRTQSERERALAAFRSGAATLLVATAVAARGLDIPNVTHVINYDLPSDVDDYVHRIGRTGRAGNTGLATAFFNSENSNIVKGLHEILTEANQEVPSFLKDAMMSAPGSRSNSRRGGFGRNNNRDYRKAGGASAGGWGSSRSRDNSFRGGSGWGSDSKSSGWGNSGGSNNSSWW

Row | Structure (SMILES) | kunw (Dbp5p) | kunw (Sub2p) | K1/2 (Ded1p)
1 | Nc1ncnc2c1ncn2[C@@H]1O[C@H](COP(=O)(O)OP(=O)(O)O)[C@@H](O)[C@H]1O [ADP] | Sub2p and Dbp5p showed only significant inhibition by ADP | Sub2p and Dbp5p showed only significant inhibition by ADP | –
2 | Nc1ncnc2c1ncn2[C@@H]1O[C@H](COP(=O)(O)OP(=O)(O)OP(=O)(O)O)[C@@H](O)[C@H]1O [ATP] | – | – | Binding of ATP (red), ADP (blue), and AMP (green) to Ded1p in the absence of RNA
